Holding throughout (type): in vivo
The subject of assay [1] is Ctenocephalides felis. As to the kind of experiment: Ctenocephalides felis in-vitro contact test, adult cat flea. The following applies: 5 μg/cm^2 (=500 g/ha), after 48 hours, read-out: activity (efficacy, fleas dead or moribund). On the procedure: Ctenocephalides felis—in-Vitro Contact Tests Adult Cat Flea
9 mg compound is solved in 1 ml acetone and diluted with acetone to the desired concentration. […] the test solution is filled in 25 ml glass test tubes and homogeneously distributed on the inner walls by rotation and tilting on a shaking device (2 h at 30 rpm). With a compound concentration of 900 ppm, an inner surface of 44.7 cm^2 and a homogeneous distribution, a dose of 5 μg/cm^2 is achieved.
After the solvent has evaporated, each test tube is filled with 5-10 adult cat fleas (Ctenocephalides felis), closed with a perforated lid and incubated in a lying position at room temperature and relative humidity. After 48 hours efficacy is determined. The fleas are patted on the ground of the tubes and are incubated on a heating plate at 45-50° C. for at most 5 minutes Immotile or uncoordinated moving fleas, which are not able to escape the heat by climbing upwards, are marked as dead or moribund.
An efficacy of 100% means all fleas are dead or moribund; 0% means no fleas are dead or moribund.

The subject of assay [2] is Ctenocephalides felis. As to the kind of experiment: Ctenocephalides felis oral test (CTECFE). The following applies: 48 h, 100 ppm in cattle blood, after 2 days. On the procedure: Ctenocephalides felis—Oral Test (CTECFE)
(§1) Solvent: dimethyl sulfoxide
To produce a suitable preparation of active compound, 10 mg of active compound are dissolved in 0.5 ml solvent, and the concentrate is diluted with cattle blood to the desired concentration.
Approximately 20 adult unfed cat fleas (Ctenocephalides felis) are placed in flea chambers. The blood chamber, sealed with parafilm on the bottom, are filled with cattle blood supplied with compound solution and placed on the gauze covered top of the flea chamber, so that the fleas are able to suck the blood. The blood chamber is heated to 37° C. whereas the flea chamber is kept at room temperature.
After 2 days mortality in % is determined. 100% means all the fleas have been killed; 0% means none of the fleas have been killed.

In assay [3] the test system is Rhipicephalus microplus (strain Parkhurst, resistant against synthetic pyrethroids). As to the kind of experiment: Rhipicephalus microplus in-vitro contact test, larval cattle tick (BOOPMI Contact). The conditions noted are these: 5 μg/cm^2 (=500 g/ha), after 48 hours, read-out: activity (efficacy, larvae dead or moribund). On the procedure: Rhipicephalus microplus—in-Vitro Contact Tests Larval Cattle Tick (Strain Parkhurst, Resistant Against Synthetic Pyrethroids) (BOOPMI Contact)
9 mg compound is solved in 1 ml acetone and diluted with acetone to the desired concentration. 250 μL of the test solution is filled in 25 ml glass test tubes and homogeneously distributed on the inner walls by rotation and tilting on a shaking device (2 h at 30 rpm). With a compound concentration of 900 ppm, an inner surface of 44.7 cm^2 and a homogeneous distribution, a dose of 5 μg/cm^2 is achieved.
After the solvent has evaporated, each test tube is filled with 20-50 cattle tick larvae (Rhipicephalus microplus), closed with a perforated lid and incubated in a horizontal position at 85% relative humidity and 27° C. in an incubator. After 48 hours efficacy is determined. The larvae are patted on the ground of the tubes and negative geotactic behaviour is recorded.
An efficacy of 100% means all larvae are dead or moribund; 0% means no larvae are dead or moribund.

In another assay the test system is Spodoptera frugiperda. As to the kind of experiment: Spodoptera frugiperda spray test. The conditions noted are these: in Zea mays, 168 h, read-out: activity (mortality). On the procedure:
Spodoptera frugiperda—Spray Test
Solvent: 78.0 parts by weight acetone • 1.5 parts by weight dimethylformamide
(§2) Emulsifier: alkylarylpolyglycol ether
To produce a suitable preparation of active compound, 1 part by weight of active compound is mixed with the stated amount of solvents and is diluted with water, containing an emulsifier concentration of 1000 ppm, to the desired concentration. Further test concentrations are prepared by dilution with emulsifier containing water.
Maize (Zea mays) leaf sections are sprayed with a preparation of the active ingredient of the desired concentration. Once dry, the leaf sections are infested with fall armyworm larvae (Spodoptera frugiperda).
After 7 days mortality in % is determined. 100% means all caterpillars have been killed and 0% means none of the caterpillars have been killed.

The subject of a further assay is Diabrotica balteata. As to the kind of experiment: Diabrotica balteata spray test. The following applies: 168 h, wheat seeds, after 7 days, read-out: activity (efficacy, seedlings grown); for pest or weed control at 160 µg/disc, 500 g/ha: 500 g/ha (=160 μg/well). On the procedure:
Diabrotica balteata—Spray Test
Solvent: 78.0 parts by weight of acetone • • 1.5 parts by weight of dimethylformamide
as §2
To produce a suitable preparation of active compound, 1 part by weight of active compound is mixed with the stated amount of solvent, and the concentrate is diluted with water, containing an emulsifier concentration of 1000 ppm, to the desired concentration. Further test concentrations are prepared by dilution with emulsifier containing water.
Soaked wheat seeds (Triticum aestivum) are placed in a multiple well plate filled with agar and some water and are incubated for 1 day to germinate (5 seeds per well). The germinated wheat seeds are sprayed with a test solution containing the desired concentration of the active ingredient. Afterwards each unit is infected with 10-20 larvae of the banded cucumber beetle (Diabrotica balteata).
After 7 days efficacy in % is determined. 100% means all the seedlings have grown up like in the untreated, uninfected control; 0% means none of the seedlings have grown.

The subject of the next assay is Boophilus microplus. As to the kind of experiment: Boophilus microplus injection test (BOOPMI Injection). The conditions noted are these: Rhipicephalus microplus, 168 h, injection into adult engorged female ticks, egg deposition after 7 days, read-out: activity (efficacy, infertile eggs); for pest or weed control at 0.004 mg: 4 μg/animal; for pest or weed control at 0.02 mg: 20 μg/animal. On the procedure: Boophilus microplus—Injection Test (BOOPMI Injection)
as §1
To produce a suitable preparation of active compound, 10 mg of active compound are dissolved in 0.5 mL solvent, and the concentrate is diluted with solvent to the desired concentration.
Five adult engorged female ticks (Boophilus microplus) are injected with 1 μL compound solution into the abdomen. The ticks are transferred into replica plates and incubated in a climate chamber.
After 7 days egg deposition of fertile eggs is monitored. Eggs where fertility is not visible are stored in a climate chamber till hatching after about 42 days. An efficacy of 100% means all eggs are infertile; 0% means all eggs are fertile.

What is called mortality is the share of the test organisms that died. As to `Cc1nc([C@H](C)Nc2nc3cc(C(F)(F)F)cc(Cl)c3o2)n(-c2ncccn2)n1` [Example I-014], in the assay on Ctenocephalides felis [1], the pest or weed control at 5 µg/cm2, 5 µg/cm2 worked out at 80%. In the assay with Ctenocephalides felis [2], the mortality at 100 ppm is 100%. Also, the pest or weed control at 5 µg/cm2 in assay [3] is 100%. Also, the mortality at 500 g/ha in the assay on Spodoptera frugiperda was determined as 100%. In addition, in the assay on Diabrotica balteata, the pest or weed control at 100 g/ha came to 100% and the pest or weed control at 160 µg/disc, 500 g/ha turned out to be 100%. In the assay with Boophilus microplus, the pest or weed control at 0.004 mg worked out at 100% and the pest or weed control at 0.02 mg is 100%.
Regarding `Cc1nc([C@H](C)Nc2nc3cc(C(F)(F)F)c(Cl)cc3o2)n(-c2ccc(C#N)cn2)n1` [Example I-019], in the assay on Ctenocephalides felis [1], the pest or weed control at 5 µg/cm2, 5 µg/cm2 worked out at 100%. Besides, in assay [3], the pest or weed control at 5 µg/cm2 is 100%. Moreover, the mortality at 500 g/ha with Spodoptera frugiperda was found to be 100%. For the same molecule, in the assay with Diabrotica balteata, the pest or weed control at 100 g/ha came to 100% and the pest or weed control at 160 µg/disc, 500 g/ha is 100%. Besides, the pest or weed control at 0.02 mg with Boophilus microplus amounted to 100%.
As to `C[C@H](Nc1nc2cc(C(F)(F)F)cc(Cl)c2o1)c1ncnn1-c1ncc(C#N)cn1` [Example I-042, 2-{5-[(1S)-1-{[7-Chlor-5-(trifluormethyl)-1,3-benzoxazol-2-yl]amino}ethyl]-1H-1,2,4-triazol-1-yl}pyrimidin-5-carbonitril], the pest or weed control at 5 µg/cm2, 5 µg/cm2 with Ctenocephalides felis [1] was 90%. Also, the pest or weed control at 5 µg/cm2 in assay [3] came to 90%.
As to `C[C@H](Nc1nc2cc(C(F)(F)F)cc(Cl)c2o1)c1ncnn1-c1cc(C#N)ccn1` [Example I-052, 2-{5-[(1S)-1-{[7-Chlor-5-(trifluormethyl)-1,3-benzoxazol-2-yl]amino}ethyl]-1H-1,2,4-triazol-1-yl}isonicotinonitril], the pest or weed control at 5 µg/cm2, 5 µg/cm2 in the assay on Ctenocephalides felis [1] was determined as 100%. For the same molecule, the mortality at 500 g/ha in the assay on Spodoptera frugiperda is 100%. For the same molecule, the pest or weed control at 160 µg/disc, 500 g/ha in the assay with Diabrotica balteata amounted to 100%. Moreover, in the assay on Boophilus microplus, the pest or weed control at 0.004 mg was found to be 100% and the pest or weed control at 0.02 mg was determined as 100%.
`C[C@H](Nc1nc2cc(C(F)(F)F)c(Cl)cc2o1)c1ncnn1-c1cnc(C#N)cn1` [Example I-057, 5-{5-[(1S)-1-{[6-Chlor-5-(trifluormethyl)-1,3-benzoxazol-2-yl]amino}ethyl]-1H-1,2,4-triazol-1-yl}pyrazin-2-carbonitril]: the pest or weed control at 5 µg/cm2, 5 µg/cm2 in the assay with Ctenocephalides felis [1] came to 100%. Moreover, in the assay on Ctenocephalides felis [2], the mortality at 100 ppm was found to be 100%. Besides, the pest or weed control at 5 µg/cm2 in assay [3] stood at 100%. In the assay with Spodoptera frugiperda, the mortality at 100 g/ha worked out at 100%. Besides, the pest or weed control at 0.004 mg with Boophilus microplus is 80%.
Regarding `COc1cnc(-n2ncnc2[C@H](C)Nc2nc3cc(C(F)(F)F)c(Cl)cc3o2)nc1` [Example I-058, 6-Chlor-N-{(1S)-1-[1-(5-methoxypyrimidin-2-yl)-1H-1,2,4-triazol-5-yl]ethyl}-5-(trifluormethyl)-1,3-benzoxazol-2-amin], the pest or weed control at 5 µg/cm2, 5 µg/cm2 in the assay with Ctenocephalides felis [1] was determined as 100%. Also, the pest or weed control at 5 µg/cm2 in assay [3] came out at 100%. Besides, in the assay on Spodoptera frugiperda, the mortality at 100 g/ha came to 83%. In the assay on Diabrotica balteata, the pest or weed control at 100 g/ha was 100%.
In the case of `C[C@H](Nc1nc2cc(S(F)(F)(F)(F)F)cc(Cl)c2o1)c1ncnn1-c1ncccn1` [Example I-069, 7-Chlor-5-(pentafluor-lambda^6-sulfanyl)-N-{(1S)-1-[1-(pyrimidin-2-yl)-1H-1,2,4-triazol-5-yl]ethyl}-1,3-benzoxazol-2-amin], the mortality at 100 ppm in the assay on Ctenocephalides felis [2] was 100%. Also, the pest or weed control at 5 µg/cm2 in assay [3] came out at 80%. Moreover, the mortality at 100 g/ha with Spodoptera frugiperda worked out at 100%. Also, the pest or weed control at 100 g/ha in the assay with Diabrotica balteata was 100%. The pest or weed control at 0.004 mg in the assay with Boophilus microplus was 100%.
`C[C@H](Nc1nc2cc(OC(F)(F)F)cc(Cl)c2o1)c1ncnn1-c1ncccn1` [Example I-070, 7-Chlor-N-{(1S)-1-[1-(pyrimidin-2-yl)-1H-1,2,4-triazol-5-yl]ethyl}-5-(triflourmethoxy)-1,3-benzoxazol-2-amin]: the pest or weed control at 5 µg/cm2, 5 µg/cm2 in the assay with Ctenocephalides felis [1] is 90%. In the assay on Ctenocephalides felis [2], this molecule displayed a mortality at 100 ppm of 100%. Moreover, the mortality at 100 g/ha in the assay with Spodoptera frugiperda is 100%. In the assay on Diabrotica balteata, the pest or weed control at 100 g/ha is 100%.
Take `C[C@H](Nc1nc2cc(OC(F)F)cc(Cl)c2o1)c1ncnn1-c1ncc(Br)cn1` [Example I-071, N-{(1S)-1-[1-(5-Brompyrimidin-2-yl)-1H-1,2,4-triazol-5-yl]ethyl}-7-chlor-5-(difluormethoxy)-1,3-benzoxazol-2-amin]: the pest or weed control at 5 µg/cm2, 5 µg/cm2 with Ctenocephalides felis [1] turned out to be 90%. In addition, the mortality at 100 ppm in the assay on Ctenocephalides felis [2] worked out at 100%. Besides, the pest or weed control at 100 g/ha in the assay with Diabrotica balteata was determined as 100%.
In the case of `C[C@H](Nc1nc2cc(OC(F)F)cc(Cl)c2o1)c1ncnn1-c1ncccn1` [Example I-074, 7-Chlor-5-(difluormethoxy)-N-{(1S)-1-[1-(pyrimidin-2-yl)-1H-1,2,4-triazol-5-yl]ethyl}-1,3-benzoxazol-2-amin], the pest or weed control at 5 µg/cm2, 5 µg/cm2 in the assay with Ctenocephalides felis [1] is 100%. Further, in the assay with Ctenocephalides felis [2], the mortality at 100 ppm was 100%. Also, in the assay on Boophilus microplus, the pest or weed control at 0.004 mg worked out at 80%.
Take `C[C@H](Nc1nc2cc(OC(F)(F)F)cc(Cl)c2o1)c1ncnn1-c1ncc(Cl)cn1` [Example I-079, 7-Chlor-N-{(1S)-1-[1-(5-chlorpyrimidin-2-yl)-1H-1,2,4-triazol-5-yl]ethyl}-5-(trifluormethoxy)-1,3-benzoxazol-2-amin]: the pest or weed control at 5 µg/cm2, 5 µg/cm2 with Ctenocephalides felis [1] came out at 100%. In the assay with Ctenocephalides felis [2], this molecule yielded a mortality at 100 ppm of 100%. Besides, the pest or weed control at 100 g/ha in the assay on Diabrotica balteata came to 100%. For the same molecule, the pest or weed control at 0.004 mg in the assay on Boophilus microplus is 80%.
As for `C[C@H](Nc1nc2cc(C(F)(F)F)c(Br)cn2n1)c1ncnn1-c1ncccn1` [Example I-094, 6-bromo-N-{(1S)-1-[1-(pyrimidin-2-yl)-1H-1,2,4-triazol-5-yl]ethyl}-7-(trifluoromethyl)[1,2,4]triazolo[1,5-a]pyridin-2-amine], in the assay on Ctenocephalides felis [1], the pest or weed control at 5 µg/cm2, 5 µg/cm2 came out at 100%. In addition, the mortality at 100 ppm with Ctenocephalides felis [2] was determined as 100%. In the assay with Diabrotica balteata, the pest or weed control at 100 g/ha was found to be 100%. In addition, in the assay on Boophilus microplus, the pest or weed control at 0.004 mg stood at 100% and the pest or weed control at 0.02 mg is 100%.

The values are drawn from patent publication US12384769B2, “Heteroaryl-substituted aminoalkyl azole compounds as pesticides” (Elanco Animal Health GmbH, priority 2019, dated 2025).
